Test results taken from patent US20150267232A1, “IN VIVO AND IN VITRO CARBENE INSERTION AND NITRENE TRANSFER REACTIONS CATALYZED BY HEME ENZYMES” (California Institute of Technology, priority 2012, published 2015).

Assay: P450/hemin reactions with azide 8 under anaerobic conditions (C—H amination)
Assay type: biochemical
Description: Benzosultam 9 (a), arylsulfonamide 13 (c), alcohol 14 (b), alkene 15 and dimer 16 (d) are defined in FIG. 13. […] B1SYN (e.g., P450BM3 with 23 amino acid substitutions) catalyzed about 45 TTN for form the benzosultam.
Small-Scale Amination Reactions Under Anaerobic Conditions.
Reaction conditions were as described herein and analyzed by reverse-phase LC-MS (Agilent 1100 series LC-MSD), acetonitrile-water, using a C18 column (Peeke Scientific, Kromasil 100 5 μm, 50×4.6 mm ID). Acetonitrile gradient for 2-isopropylbenzenesulfonyl azide reactions: 10-22% (8 min), 22-60% (10 min), 60% (2 min), at 1.5 mL min^−1. Retention times: alcohol 10 (6.3 min), sulfonamide 2 (10.6 min), dimer 4 (12.3 min), azide 1 (17.6 min).

hemin
TTN arylsulfonamide 13 (1 mol %, 2 mM NADPH): 1
TTN benzosultam 9 (1 mol %, 2 mM NADPH): 0
arylsulfonamide 13 (% yield) (1 mol %, 2 mM NADPH): (1) %
TTN arylsulfonamide 13 (1 mol %, 2 mM Na2S2O4): 1
TTN benzosultam 9 (1 mol %, 2 mM Na2S2O4): 4
arylsulfonamide 13 (% yield) (1 mol %, 2 mM Na2S2O4): (1) %
benzosultam 9 (% yield) (1 mol %, 2 mM Na2S2O4): (4) %
TTN arylsulfonamide 13 (1 mol %, 10 mM Na2S2O4): 23
TTN benzosultam 9 (1 mol %, 10 mM Na2S2O4): 61
arylsulfonamide 13 (% yield) (1 mol %, 10 mM Na2S2O4): (23) %
benzosultam 9 (% yield) (1 mol %, 10 mM Na2S2O4): (61) %
TTN arylsulfonamide 13 (1 mol %, reductant None): 0
TTN benzosultam 9 (1 mol %, reductant None): 0
TTN arylsulfonamide 13 (10 mol %, 2 mM Na2S2O4): 0
TTN benzosultam 9 (10 mol %, 2 mM Na2S2O4): 0
TTN arylsulfonamide 13 (10 mol %, 10 mM Na2S2O4): 3
TTN benzosultam 9 (10 mol %, 10 mM Na2S2O4): 4
arylsulfonamide 13 (% yield) (10 mol %, 10 mM Na2S2O4): (30) %
benzosultam 9 (% yield) (10 mol %, 10 mM Na2S2O4): (40) %
